Test results reported in patent US10513529B2, “1,2,4-triazolo-[3,4-b]-1,3,4-thiadiazole derivatives” (GALENICA S.A., priority 2016, dated 2019).

Assays:
Type in all cases: cell-based
[1] = system: UWB1.289 human ovarian cancer cell line (mutant BRCA1); experiment: MTT cytostatic-cytotoxic activity, UWB1.289
In short: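 UWB1.289 cells (BRCA1-null, p53-mutant) were seeded at 1×10^4 cells/ml per well and treated after 24 h with 1-100 μmol/l compound for 48 h, in triplicate. Viability was read by MTT (3 h, DMSO solubilisation, 540 nm). GI50, TGI and IC50 came from treated versus 24 h and 72 h control absorbances.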

[2] = system: OVCAR-3 human ovarian cancer cell line; experiment: MTT cytostatic-cytotoxic activity, OVCAR-3; settings: OVCAR-3, 48 h treatment
In short: (§1)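 SKOV-3 and OVCAR-3 cells seeded at 1×10^4 cells/ml, treated after 24 h with 1-100 μmol/l compound for 48 h in triplicate. Viability by MTT (3 h, 37 °C), absorbance at 540 nm; GI50, TGI and IC50 computed from treated versus 24 h and 72 h control readings.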

[3] = system: T-47D human breast cancer cell line; experiment: MTT cytostatic-cytotoxic activity, T-47D; settings: 48 h treatment
[4] = system: UWB1.289 + BRCA1 human ovarian cancer cell line; experiment: MTT cytostatic-cytotoxic activity, UWB1.289+BRCA1
In short: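 BRCA1-restored UWB1.289 ovarian cells in McCoy's 5a/RPMI-MEGM with 10% FBS, seeded 24 hours before 48 h treatment with 1-100 μmol/l compound, triplicate wells. Viability by MTT, 3 h, absorbance 540 nm. GI50, TGI and IC50 computed from treated versus 24 h and 72 h control readings.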

[5] = system: MCF-7 human breast cancer cell line; experiment: MTT cytostatic-cytotoxic activity, MCF-7
[6] = system: SKOV-3 human ovarian cancer cell line; experiment: MTT cytostatic-cytotoxic activity, SKOV-3
In short: as §1

Question: `COc1cc(Cc2nnc3sc(/C=C/c4ccc(Cl)cc4)nn23)c(S(=O)(=O)N(C)C)cc1OC` [TS26, 3-[2-(N,N-dimethylsulfamoyl)-4,5-dimethoxybenzyl]-6-(E)-4-chlorostyryl-1,2,4-triazolo[3,4-b]-1,3,4-thiazole] was tested. Which GI50 ([1]; Homo sapiens, UWB1289, 48 h, UWB1.289, 48 h treatment) did it give?
Answer: The GI50 was 8 µM.

Question: And the IC50 ([1]; Homo sapiens, UWB1289, UWB1.289, 48 h treatment, kills 50% of the cells)?
Answer: Its IC50 is 72 µM.

Question: What about the TGI ([1]; UWB1.289, 48 h treatment) of the same compound?
Answer: Its TGI is 21 µM.

Question: And the GI50 ([2]; Homo sapiens)?
Answer: The GI50 was 41 µM.

Question: And the IC50 ([2]; Homo sapiens, kills 50% of the cells)?
Answer: Its IC50 is greater than 100 µM.

Question: What about the TGI [2] of the same compound?
Answer: Its TGI is 87 µM.

Question: What about the TGI [3] of the same compound?
Answer: Its TGI is greater than 100 µM.

Question: What about the GI50 ([3]; Homo sapiens, T47D, 48 h) of the same compound?
Answer: Its GI50 is 78 µM.

Question: And the IC50 ([3]; Homo sapiens, T47D, kills 50% of the cells)?
Answer: Its IC50 is greater than 100 µM.

Question: What about the GI50 ([4]; Homo sapiens, UWB1289, UWB1.289+BRCA1, 48 h treatment) of the same compound?
Answer: Its GI50 is 11 µM.

Question: And the IC50 ([4]; Homo sapiens, UWB1289, UWB1.289+BRCA1, 48 h treatment, kills 50% of the cells)?
Answer: The IC50 was 54 µM.

Question: What about the TGI ([4]; UWB1.289+BRCA1, 48 h treatment) of the same compound?
Answer: Its TGI is 37 µM.

Question: And the GI50 ([5]; Homo sapiens, MCF7, 48 h, MCF-7, 48 h treatment)?
Answer: The GI50 was 25 µM.

Question: And the IC50 ([5]; Homo sapiens, MCF7, MCF-7, 48 h treatment, kills 50% of the cells)?
Answer: The IC50 was greater than 100 µM.

Question: What about the TGI ([5]; MCF-7, 48 h treatment) of the same compound?
Answer: Its TGI is 67 µM.

Question: And the GI50 ([6]; Homo sapiens, SK-OV-3, SKOV-3, 48 h treatment)?
Answer: The GI50 was 38 µM.

Question: And the IC50 ([6]; Homo sapiens, SK-OV-3, SKOV-3, 48 h treatment, kills 50% of the cells)?
Answer: The IC50 was greater than 100 µM.

Question: What about the TGI ([6]; SKOV-3, 48 h treatment) of the same compound?
Answer: Its TGI is 72 µM.
